Source: patent publication US7303876B2 (Applera Corporation, priority 2000, dated 2007)
Where two headings read alike, the source gives them in different places. Each block holds one compound with its values, some of them ahead of it.

Columns and labels:
Liver tissue [1] = experiment: Nucleic acid release from liver slices, pH 6, 45° C., 30 minutes, surfactants and additives; settings: for amount of nucleic acid released in comparison with surfactant without an additive: FIG. 7
Description: To compare CTACl to CTAB, those two surfactants were evaluated in parallel along with hexadecyltrimethylammonium bromide (HDTAB), hexadecyltrimethylammonium chloride (HDTACl), and Sarkosyl. Three additives, phenylglyoxal, acridine orange (e.g., Sigma #A6014), and 1-methyl-2-pyrolidinone, were also evaluated. Phenylglyoxal was tested to determine if it would reduce RNAse activity. […] 1-Methyl-2-pyrrolidinone was tested to see if it would enhance solubility of the sample by various reaction compositions.
Slices of liver-tissue (100-200 mg/sample) were placed into twenty-one Eppendorf tubes. Four hundred microliters of a reaction composition, comprising 100 mM MES, pH 6, 20 mM CaCl2, and 1 mg Proteinase K, was added to each tube.
(§1) The tubes were incubated at 45° C. for 30 minutes with mixing (Eppendorf Thermomixer, Model 5436). Surfactant: protease complexes were solubilized using methods the same as or similar to those described in Example 7. Remaining tissue fragments were removed by centrifugation using methods the same as or similar to those described in Example 7. The supernatant was phenol extracted, isopropanol precipitated, and ethanol washed using methods the same as or similar to those described in Example 6.

slices of liver = experiment: Maceration of liver slices by reaction compositions at 65° C.; settings: 65° C.
Description: Initially, a series of reaction compositions were analyzed for their ability to disaggregate a biological sample, e.g., slices of liver. These reaction compositions comprised 100 mM Tris, pH 8.0, 20 mM dithiothreitol (DTT), and optionally,1 mg/ml Proteinase K, surfactants (e.g., cationic, nonionic and anionic detergents), chaotropes, or the additive 1-methyl-2-pyrollidinone (Sigma). Each reaction compositions was placed in a tube with a slice of liver and then incubated at 65° C. The tubes were observed periodically to determine which reaction compositions were able to efficiently macerate the sample.

Liver tissue [2] = experiment: Nucleic acid release from liver slices, pH 6, 45° C., 20 minutes, surfactants and additives; settings: with Proteinase K, FIG. 5
Description: The results from Example 6 indicate that there was significant nuclease activity present in the sample. To reduce the nucleolytic activity of endogenous RNAses, the pH of the reaction composition was lowered to approximately 6.0 and the incubation temperature was decreased to 45° C. Several additives, including phenylglyoxal (Aldrich #14243-3), 1-methyl-2-pyrolidinone, RNA Later (Ambion, #7020), and Streck Tissue Fixitive (Streck Laboratories, #265138) were also tested to evaluate their effect on endogenous RNAse activity in these reaction compositions. Phenylglyoxal is known to reduce ribonuclease activity (see Takahashi, The Structure And Funtion Of Ribonuclease T1. XI. Modification Of The Single Arginine Residue In Ribonuclease T1 By Phenylglyoxal And Glyoxal, J. Biochem (Japan) 68:659-664, 1970). The product literature for RNA Later claims that the reagent stabilizes RNA in tissue and Streck Tissue Fixative is believed to preserve the integrity of tissue.
Slices of liver tissue (100-200 mg/sample) were placed into nineteen Eppendorf tubes. Four hundred microliters of a reaction composition comprising 100 mM MES (Sigma #M-5287), pH 6, 20 mM CaCl2, and 1 mg Proteinase K, was added to each tube.
The tubes were incubated at 45° C. for 20 minutes with mixing (Eppendorf Thermomixer, Model 5436). […] Undigested tissue fragments were removed by centrifugation using the methods the same as or similar to those discussed in Example 6. The supernatant was phenol extracted (saturated with 10 mM Tris HCl , pH 8, 1 mM EDTA; Sigma #P-4557), isopropanol precipitated (Aldrich #19076-4), and ethanol washed using methods the same as or similar to those described in Example 6.

Liver tissue [3] = experiment: Liver tissue disaggregation by 1% surfactant with or without Proteinase K at 60° C.; set-up: Tissue Disaggregation: scale not given here; settings: for Tissue Disaggregation: 60° C., 1% surfactant
Description: To evaluate the ability of various cationic surfactants to increase the digestion of tissue by Proteinase K, liver slices were digested using reaction compositions including one of the sixteen surfactants (shown in Table 4), both with and without Proteinase K. The reducing agent dithiothreitol (DTT) was included to evaluate the effect of reducing conditions on tissue digestion. […] One of the sixteen surfactants was added to one pair of tubes to yield a final concentration of 1% surfactant. The seventeenth pair of tubes served as non-surfactant controls. One milligram (mg) of Proteinase K was added to one tube of each of the seventeen pairs.
PK=presence or absence of Proteinase K in the reaction composition; Y=Proteinase K was present; N=Proteinase K was not present in the reaction composition.

[4] = Solubility of surfactants (0.5% Sarkosyl, LDS, SDS, CTAB; 5.0% others) in salt solutions; settings: pH 6
Description: In certain instances, the solubility of detergents in high salt may relate to on the composition of the salt and the detergent itself. A mixing experiment was performed to examine the solubility of a variety of anionic, cationic, and nonionic surfactants in different salt compositions. […] The salt solutions contained Lil, Nal, KI, Rbl, Csl , GuSCN, GuHCl, or NaClO4, at pH 6.0 or 10.0. […] The solubility of the surfactants was scored as either soluble or insoluble. The solubility of the surfactant in the salt solution was determined initially by visual observations for cloudiness or precipitate formation. The resulting solutions were also centrifuged to verify the absence of a precipitate by the absence of a precipitate pellet.

Liver tissue [5] = experiment: Integrity of nucleic acid released from liver slices with aurintricarboxylic acid, 55° C., 30 minutes; settings: 1% surfactant, FIG. 11
Description: Slices of liver tissue (77-186 mg/sample) were placed into twenty-one Eppendorf tubes. To each tube was added 400 μL of a reaction composition comprising 50 mM MES, pH 6.0, 20 mM CaCl2, and additional components as shown in Table 10.
as §1, with “55°” for “45°”, “C.” for “C. for 30 minutes”, “5436) for 30 minutes. The resulting surfactant-protease complex was” for “5436). Surfactant: protease complexes were”, “Undigested” for “Remaining”, “precipitated” for “precipitated,”

[6] = Solubility of 1% cationic surfactants in 5M chaotropic salt solutions containing 2% Tween 20
Text: The solubilities of several cationic surfactants were examined in different chaotropic salt solutions. The cationic surfactants examined were cetyltrimethylammonium bromide (CTAB), cetyltrimethylammonium chloride (CTACl), tetradecyltrimethylammonium bromide (TTAB), tetradecyltrimethylammonium chloride (TTACl), dodecyltrimethylammonium bromide (DTAB), dodecyltrimethylammonium (DTACl), dodecylethyidimethylammonium bromide (DEDTAB), decyltrimethylammonium bromide (D10TAB), and dodecyltriphenylphosphonium bromide (DTPB). Each of the cationic surfactants tested was presented in a 1% concentration. Each of the cationic surfactants was examined in a 5M solution of one of the chaotropic salts containing 2% Tween 20. Each cationic surfactant and salt combination was tested at pH 6 (50 mM MES), pH 8 (50 mM Tris-HCl), and pH 10 (50 mM AMP).

Proteinase K = biological target: T1, Proteinase K (Parengyodontium album, UniProt P06873); experiment: Effect of surfactants on Proteinase K digestion of dye-labeled casein substrate; assay type: biochemical; settings: 1% surfactant, 60° C., Proteinase K 0.005-20 μg/ml
T1 construct: purchased Ambion 2546
T1 sequence (P06873 106-384): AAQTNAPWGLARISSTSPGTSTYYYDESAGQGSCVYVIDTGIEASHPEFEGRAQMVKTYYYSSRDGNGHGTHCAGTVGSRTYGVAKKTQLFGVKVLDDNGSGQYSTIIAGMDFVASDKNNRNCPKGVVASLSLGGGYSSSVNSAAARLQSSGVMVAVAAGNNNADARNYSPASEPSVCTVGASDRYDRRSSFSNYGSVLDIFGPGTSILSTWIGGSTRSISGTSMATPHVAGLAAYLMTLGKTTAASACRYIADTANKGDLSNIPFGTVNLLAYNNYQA
Description: To test the effect of cationic surfactants on the activity of Proteinase K, a series of reaction compositions were prepared as follows. Reaction compositions comprised: Casein BoDipy conjugate (1 μg, 10 ng/μL), 10 mM Tris, pH 8, 20 mM CaCl2, 1% surfactant (shown in Table 2 below) and a dilution series of Proteinase K at concentrations of 20 μg/ml, 5 μg/ml, 1.25 μg/ml, 0.31 μg/ml, 0.078 μg/ml, 0.02 μg/ml and 0.005 μg/ml. […] Reaction tubes were incubated at 60° C. in a 96-well optical plate (MicroAmp® Optical 96-Well Reaction Plate, Applied Biosystems) and the amount of released fluorescence was measured at the indicated time points using an ABI Prism 7700.

[7] = Fifteen Minutes Incubation, Proteinase K not present (N)
[8] = Fifteen Minutes Incubation, Proteinase K present (Y)
[9] = Fifty-Two Minutes Incubation, Proteinase K not present (N)
[10] = Fifty-Two Minutes Incubation, Proteinase K present (Y)
[11] = 5M chaotropic salts, 2% Tween 20

Compound: CN1CCCC1=O [1-methyl 2-pyrrolidinone, 1-methyl-2-pyrolidinone]
amount of nucleic acid released in comparison with surfactant without an additive (Liver tissue [1]; 10% additive with 1% CTACl): greater
amount of nucleic acid released in comparison with surfactant without an additive (Liver tissue [1]; 10% additive with 1% HDTAB): less
maceration of liver slice (slices of liver; No Proteinase K, 16-24 hr, additive 2%): 0%

Compound: CCCCCCCCCCCCCCCC[N+](C)(C)C.[Br-] [CTAB, cetyltrimethylammonium bromide]
release of A260 absorbing material from the sample (Liver tissue [2]): released A260 absorbing material
Tissue Disaggregation (Liver tissue [3]; [7]): 0
Tissue Disaggregation (Liver tissue [3]; [8]): 4
Tissue Disaggregation (Liver tissue [3]; [9]): 0
Tissue Disaggregation (Liver tissue [3]; [10]): 4
disaggregation of the tissue sample (in words) (Liver tissue [3]; combination with Proteinase K, 15 and 52 minutes): total disaggregation
disaggregation of the tissue sample (in words) (Liver tissue [3]; surfactant alone, no Proteinase K): no apparent sample disaggregation
Solubility of surfactant [4]: S
maceration of liver slice (slices of liver; 1 mg/ml Proteinase K, 16-24 hr, additive 0.1%): 100%
maceration of liver slice (slices of liver; 1 mg/ml Proteinase K, 16-24 hr, additive 1%): 100%
maceration of liver slice (slices of liver; 1 mg/ml Proteinase K, 1 hr, additive 0.1%): 100%
maceration of liver slice (slices of liver; 1 mg/ml Proteinase K, 1 hr, additive 1%): 100%
ability to macerate the liver sample (in words) (slices of liver): most effectively macerated the sample
effect on the proteolytic activity of Proteinase K (slices of liver; liver slices): appeared to enhance the proteolytic activity of Proteinase K
nucleic acid released, surfactant in reaction composition with aurintricarboxylic acid (Liver tissue [5]): released a large amount of high integrity nucleic acid

Compound: CCCCCCCCCCCCCCCC[N+](C)(C)C.[Cl-] [CTACl, cetyltrimethylammonium chloride]
release of A260 absorbing material from the sample (Liver tissue [2]): released A260 absorbing material
high molecular weight nucleic acid by gel electrophoresis (Liver tissue [1]; with either 1-methy-2-pyrolidinone or acridine orange): High molecular weight nucleic acid was also present
nucleic acid released, surfactant in reaction composition with aurintricarboxylic acid (Liver tissue [5]): released a large amount of high integrity nucleic acid

Compound: CCCCCCCCCCCC[N+](C)(C)CC.[Br-] [DEDTAB, dodecylethyldimethylammonium bromide]
relative solubility in chaotropic salt solutions (in words) [6, 11]: more soluble than larger surfactants

Compound: CCCCCCCCCCCC[N+](C)(C)C.[Cl-] [DTACl, dodecyltrimethylammonium chloride]
relative solubility in chaotropic salt solutions (in words) [6, 11]: more soluble than larger surfactants

relative solubility in chaotropic salt solutions (in words) [6]: more soluble than larger surfactants
Compound: CCCCCCCCCCCC[P+](c1ccccc1)(c1ccccc1)c1ccccc1.[Br-] [DTPB, dodecyltriphenylphosphonium bromide]

Compound: CCCCCCCCCCCCCCCC[N+](C)(C)C.[Br-] [Hexadecyltrimethylammonium bromide, hexadecyltrimethylammonium bromide]
high molecular weight nucleic acid by gel electrophoresis (Liver tissue [1]; all reaction compositions containing the surfactant, FIG. 8): high molecular weight nucleic acid was apparent
Tissue Disaggregation (Liver tissue [3]; [7]): 0
Tissue Disaggregation (Liver tissue [3]; [8]): 0
Tissue Disaggregation (Liver tissue [3]; [9]): 0
Tissue Disaggregation (Liver tissue [3]; [10]): 1

Compound: CCCCCCCCCCCCOS(=O)(=O)[O-].[Na+] [SDS, sodium dodecyl sulfate]
effect on Proteinase K activity on the casein substrate (Proteinase K): enhances the activity of Proteinase K
release of A260 absorbing material from the sample (Liver tissue [2]): released A260 absorbing material
Tissue Disaggregation (Liver tissue [3]; [7]): 0
Tissue Disaggregation (Liver tissue [3]; [8]): 3
Tissue Disaggregation (Liver tissue [3]; [9]): 0
Tissue Disaggregation (Liver tissue [3]; [10]): 3
maceration of liver slice (slices of liver; 1 mg/ml Proteinase K, 2-5 hr, additive 1%): 50%
maceration of liver slice (slices of liver; No Proteinase K, 2-5 hr, additive 1%): 0%
nucleic acid released, surfactant in reaction composition with aurintricarboxylic acid (Liver tissue [5]): less nucleic acid was released

relative solubility in chaotropic salt solutions (in words) [6]: more soluble than larger surfactants
Compound: CCCCCCCCCC[N+](C)(C)C.[Br-] [Sample D10TAB, decyltrimethylammonium bromide]

Compound: CCCCCCCCCCCC(=O)N(C)CC(=O)[O-].[Na+] [Sarkosyl, sodium N-lauroylsacrosinate]
release of A260 absorbing material from the sample (Liver tissue [2]): released A260 absorbing material
maceration of liver slice (slices of liver; No Proteinase K, 72 hr, additive 2%): 0%
